Where “and” joins values, the source holds several entries; their conditions need not be identical. Equal values may be shown once. Read-outs that look alike come from different tables or passages of the source. One block for each compound: values may come before it. Non-standard residues stand in square brackets, D forms with d. Residues, ends and D or L forms follow the SMILES beside them. No end group written: not given here.
Legend:
αIIbβ3 headpiece [1] = target: T1, αIIbβ3 headpiece (Homo sapiens, UniProt P05106+P08514); assay: Ligand soaking into closed αIIbβ3 headpiece crystals, conformational state by X-ray structure; design: increasing the concentration of purified recombinant αIIbβ3 headpiece to saturation; C-terminal α-helical coiled-coil (C); made in house; conditions: 4 °C, state 1 closed, state 8 open
T1 sequence (P08514 32-652 limits assumed): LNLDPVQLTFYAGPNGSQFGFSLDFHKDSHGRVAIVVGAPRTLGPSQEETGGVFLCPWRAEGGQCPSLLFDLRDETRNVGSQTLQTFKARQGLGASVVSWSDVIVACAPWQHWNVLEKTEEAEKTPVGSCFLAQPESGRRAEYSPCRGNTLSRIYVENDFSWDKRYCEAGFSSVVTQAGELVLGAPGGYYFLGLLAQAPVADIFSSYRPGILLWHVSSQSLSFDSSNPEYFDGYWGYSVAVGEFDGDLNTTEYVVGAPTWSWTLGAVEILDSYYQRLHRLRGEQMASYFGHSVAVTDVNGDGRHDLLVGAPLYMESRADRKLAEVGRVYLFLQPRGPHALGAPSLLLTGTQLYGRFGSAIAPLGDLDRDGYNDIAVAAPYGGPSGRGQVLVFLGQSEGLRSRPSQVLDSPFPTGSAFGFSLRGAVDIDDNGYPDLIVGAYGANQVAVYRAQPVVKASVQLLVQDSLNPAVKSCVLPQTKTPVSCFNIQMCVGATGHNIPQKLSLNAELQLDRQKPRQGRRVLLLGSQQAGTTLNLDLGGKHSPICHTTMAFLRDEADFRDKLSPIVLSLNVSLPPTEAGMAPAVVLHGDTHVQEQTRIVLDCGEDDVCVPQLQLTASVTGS
T1 sequence (P05106 27-498 limits assumed): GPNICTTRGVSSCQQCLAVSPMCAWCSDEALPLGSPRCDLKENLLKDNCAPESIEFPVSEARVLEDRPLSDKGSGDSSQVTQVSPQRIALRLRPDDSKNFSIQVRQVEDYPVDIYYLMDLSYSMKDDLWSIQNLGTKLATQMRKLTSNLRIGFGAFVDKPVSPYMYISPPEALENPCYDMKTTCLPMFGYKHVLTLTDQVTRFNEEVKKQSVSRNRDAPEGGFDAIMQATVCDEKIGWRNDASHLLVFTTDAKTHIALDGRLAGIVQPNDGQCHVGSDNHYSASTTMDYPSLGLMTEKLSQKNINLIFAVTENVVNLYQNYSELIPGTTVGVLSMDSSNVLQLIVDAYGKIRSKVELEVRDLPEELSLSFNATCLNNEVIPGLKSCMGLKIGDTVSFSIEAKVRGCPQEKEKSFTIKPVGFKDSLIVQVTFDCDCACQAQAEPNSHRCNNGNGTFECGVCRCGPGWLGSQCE
Description: The αIIbβ3 headpiece was crystallized in the closed conformation with the thigh domain removed ([11]). Briefly, chymotrypsin- and carboxypeptidase-treated αIIbβ3-10E5 Fab complex was concentrated to 10 mg/ml in TBS (20 mM Tris, 150 mM NaCl, pH 7.4) with 1 mM Mg^2+, 1 mM Ca^2+ and crystallized in 11% PEG 8000, 0.2 M ammonium sulfate, 0.1 M Tris-HCl, pH 8.9 at 4 °C ([11]). Crystals were then stabilized with the same crystallization buffer but containing 15% PEG 8000, and glycerol concentration was incremented in 5% steps to 20% for cryoprotection. Finally, crystals were soaked in ligand in the same buffer with defined metal conditions for a specified duration at 4 °C (see Table 1). Diffraction data were collected at beamline ID-23 of the Advanced Photon Source (Argonne, IL). Resolution limit was determined by cross-correlation ([14]). Refinements using Phenix ([15]) were as described previously ([4]).
We soaked AGDV peptide into αIIbβ3 headpiece crystals in the closed conformation (state 1) in 1 mM Mn^2+ and 0.2 mM Ca^2+ and were able to trap four distinct intermediate states during headpiece opening (Table 1). […] Two copies of the αIIbβ3 headpiece complex (molecules 1 and 2) exist in one asymmetric unit ([4]), so we were able to obtain two different conformational states in a single crystal (Table 1). Based on the conformation and position of the moving parts of the βI domain, i.e. the β1-α1 loop, α1-helix, β6-α7 loop, and the ADMIDAS metal, each intermediate (Fig. 4) is assigned a state number between 1 (Fig. 4A) and 8 (Fig. 4B) corresponding to previous RGD-bound intermediates ([4]). AGDV binds in the groove formed between the α- and β-subunits (Fig. 4, C, E, G, and I), but has limited contact with α, because it occupies only a portion (about two-thirds) of the groove occupied by RGD (Fig. 4B). The N-terminal amine of AGDV is >9.0 Å away from Asp-224 of αIIb, which forms salt bridges to the Arg of RGD and the Lys of KQAGDV. Moreover, unlike the extended backbone conformation adopted by RGD (Fig. 4, A and B), the backbone of AGDV is curved (Fig. 4, C, E, G, and I).

αIIbβ3 = conditions: cited from earlier work
Source text: Ro-435054 is a 4-residue peptidomimetic, with an N-terminal amidinobenzoyl, a β-alanine, an L-Asp, and a C-terminal L-Phe (Fig. 7A). […] The high-affinity RGDF peptide ([19]) may be considered both fibrinogen-mimetic and RGD-mimetic. RGDF has the same two C-terminal a ...

[2] = test system: fibrinogen binding to platelets; design: method as in PMID 6326808; conditions: read-out: IC50, block of fibrinogen binding to platelets; cited from earlier work
αIIbβ3 headpiece [3] = target: T1, αIIbβ3 headpiece; assay: Fluorescence anisotropy binding assay (saturation and competition with FITC-dodecapeptide); design: increasing the concentration of purified recombinant αIIbβ3 headpiece to saturation; C-terminal α-helical coiled-coil (C); made in house; conditions: for reduction in affinity relative to AGDV: fluorescence anisotropy, Mn2+/Ca2+; for Kd: read-out: KD, competitive binding
Description: Binding affinities for different peptide ligands were measured using fluorescence anisotropy as described previously ([12]). Anisotropy is defined as (F‖ − F⊥)/(F‖ + 2F⊥), where F‖ and F⊥are the fluorescence intensities parallel and perpendicular to the excitation plane, respectively. mA units (shown in figures) correspond to 1,000 × anisotropy. […] KD^F* was fitted using one-site, specific binding; i.e. A = Amax × Citg/(KD^F* + Citg), where A represents the anisotropy signal from specific binding, Citg represents the concentration of integrin αIIbβ3 headpiece, and Amax is the maximum anisotropy signal. Background anisotropy obtained by adding an excess of 10 μM tirofiban was subtracted from anisotropy.
I50 values for unlabeled peptides were obtained by least squares fitting. […] All measurements were in 20 mM HEPES, pH 7.5, 150 mM NaCl, 2 mM MnCl2, 0.1 mM CaCl2. The Prism GraphPad program (La Jolla, CA) was used to fit the saturation binding curve, inhibition curves, and I50 values.

[4] = target: T2, CHO cells stably expressing full-length human αIIbβ3 (Homo sapiens, UniProt P05106+P08514); assay: Ligand-induced binding site (LIBS1) epitope expression, flow cytometry; format: cell-based
T2 construct: CHO K1 cells stably transfected with full-length αIIbβ3; expressed in transfected cells; host or cells: CHO K1 cells, stably transfected
T2 sequence (P08514 32-887 limits assumed): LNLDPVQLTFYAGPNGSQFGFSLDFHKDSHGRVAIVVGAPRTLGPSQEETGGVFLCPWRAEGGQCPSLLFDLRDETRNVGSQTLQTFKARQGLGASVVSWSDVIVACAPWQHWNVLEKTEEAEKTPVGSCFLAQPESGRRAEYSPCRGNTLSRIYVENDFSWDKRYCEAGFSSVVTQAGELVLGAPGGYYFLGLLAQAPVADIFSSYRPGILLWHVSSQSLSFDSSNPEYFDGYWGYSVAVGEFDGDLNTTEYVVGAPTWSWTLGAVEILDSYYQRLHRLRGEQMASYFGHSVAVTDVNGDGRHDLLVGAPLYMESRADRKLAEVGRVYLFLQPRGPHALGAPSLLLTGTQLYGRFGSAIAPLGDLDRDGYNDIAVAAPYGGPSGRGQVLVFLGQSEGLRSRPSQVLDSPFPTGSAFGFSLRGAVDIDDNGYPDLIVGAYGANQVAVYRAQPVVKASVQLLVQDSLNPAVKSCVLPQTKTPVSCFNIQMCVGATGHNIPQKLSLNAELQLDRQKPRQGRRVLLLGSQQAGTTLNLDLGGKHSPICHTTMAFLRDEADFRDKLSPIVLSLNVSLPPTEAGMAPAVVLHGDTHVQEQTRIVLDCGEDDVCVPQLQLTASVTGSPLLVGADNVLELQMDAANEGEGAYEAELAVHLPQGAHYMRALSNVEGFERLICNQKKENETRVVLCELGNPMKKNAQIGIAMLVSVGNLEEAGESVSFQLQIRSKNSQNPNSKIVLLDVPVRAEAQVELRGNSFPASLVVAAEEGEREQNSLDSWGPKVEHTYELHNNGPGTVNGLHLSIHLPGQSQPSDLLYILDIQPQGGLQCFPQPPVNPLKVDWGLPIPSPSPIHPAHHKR
T2 sequence (P08514 891-1039 partner limits assumed): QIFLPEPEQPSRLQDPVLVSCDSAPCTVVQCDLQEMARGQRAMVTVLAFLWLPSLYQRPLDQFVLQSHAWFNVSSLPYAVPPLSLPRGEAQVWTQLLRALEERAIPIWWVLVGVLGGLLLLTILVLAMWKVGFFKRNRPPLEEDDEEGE
T2 sequence (P05106 27-788): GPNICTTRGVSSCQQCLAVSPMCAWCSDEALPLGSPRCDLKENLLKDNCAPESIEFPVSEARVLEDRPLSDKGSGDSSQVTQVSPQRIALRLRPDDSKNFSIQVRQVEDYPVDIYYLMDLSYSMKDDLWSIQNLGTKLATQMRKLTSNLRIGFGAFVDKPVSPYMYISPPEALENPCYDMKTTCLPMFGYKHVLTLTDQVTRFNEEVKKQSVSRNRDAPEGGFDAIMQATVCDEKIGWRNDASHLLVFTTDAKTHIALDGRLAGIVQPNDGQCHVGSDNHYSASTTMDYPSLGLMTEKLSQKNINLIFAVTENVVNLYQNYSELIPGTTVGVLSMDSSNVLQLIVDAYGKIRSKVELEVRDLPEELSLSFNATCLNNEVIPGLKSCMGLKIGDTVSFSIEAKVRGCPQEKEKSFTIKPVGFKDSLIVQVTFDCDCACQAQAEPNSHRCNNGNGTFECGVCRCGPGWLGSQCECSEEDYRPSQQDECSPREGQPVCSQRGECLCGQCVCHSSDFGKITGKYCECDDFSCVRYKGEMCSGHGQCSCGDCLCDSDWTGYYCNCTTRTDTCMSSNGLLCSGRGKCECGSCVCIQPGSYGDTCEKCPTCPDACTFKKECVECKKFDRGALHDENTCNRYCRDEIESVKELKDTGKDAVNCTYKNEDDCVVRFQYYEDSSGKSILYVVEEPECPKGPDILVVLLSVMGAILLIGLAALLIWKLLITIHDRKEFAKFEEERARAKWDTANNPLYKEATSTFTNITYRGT
Description: CHO K1 cells stably transfected with full-length αIIbβ3 ([16]) were incubated at room temperature with serially diluted peptide in 20 mM HEPES, pH 7.4, 150 mM NaCl, 5.5 mM glucose, 1% BSA, 1 mM Mg^2+/Ca^2+, and 10 μg/ml LIBS1 antibody for 30 min. Mixtures were washed twice in the same buffer minus LIBS1. The washed cells were incubated with FITC-conjugated anti-mouse antibody at room temperature for 30 min, washed again, chilled on ice, and subjected to flow cytometry. The dose-response curves were fit, and EC50 values were calculated by Prism GraphPad.

αIIbβ3 headpiece [5] = target: T1, αIIbβ3 headpiece; assay: Dynamic light scattering (DLS) of headpiece with peptide: headpiece opening; conditions: αIIbβ3 headpiece (20 μM) + 1 mM peptide; TBS pH 7.4, 1 mM Mg2+, 1 mM Ca2+, 10 min, 25 °C; headpiece alone 4.69 ± 0.02; triplicate, mean ± S.D.
Description: (§1) Digested headpiece was purified by passage through a nickel-nitrilotriacetic acid column ([13]). For Stokes radius measurements, the re-purified headpiece at 10 μM (1 mg/ml by A280) was incubated with 1 mM peptide ligand in 20 mM TBS with 1 mM Mg^2+ and 1 mM Ca^2+ at 25 °C for 30 min and then applied to a Superdex 200 column (GE Healthcare Life Sciences) pre-equilibrated with the same buffer containing 1 mM peptide. Calibration and conversion of elution volume to Stokes radius was as described ([11]). For DLS, 20 μM chymotrypsin-treated, re-purified headpiece was filtered through a 100 nm cutoff membrane (Millipore Ultrafree centrifugal filter), incubated with 1 mM peptide in TBS plus 1 mM Mg^2+/Ca^2+ for 10 min at 25 °C in the cuvette, and read in the Viscotek 802 DLS (Viscotek Corp.). The DLS-derived hydration radii (Rh) were obtained by intensity-based fitting using the OmniSize program for 2–3 independent measurements using the same batch of integrin headpiece sample, but measured in different days. Each measurement was an average of at least fifteen 10-s reads.
(§2) The change in Stokes radius was also measured by size-exclusion chromatography (Fig. 3B).

αIIbβ3 headpiece [6] = target: T1, αIIbβ3 headpiece; assay: Size-exclusion chromatography (Superdex 200) of headpiece with peptide: headpiece opening; conditions: for elution volume of αIIbβ3 headpiece: Superdex 200, 1 mM peptide, buffer alone 12.56 ± 0.01 ml, mean; for Stokes radii, Size-exclusion: αIIbβ3 headpiece (10 μM) + 1 mM peptide, Superdex 200, TBS, 1 mM Mg2+/Ca2+, 25 °C, 30 min, headpiece alone 4.78 ± 0.02, duplicate, mean and difference from mean
Description: as §1, §2

Conformational states (molecule 1/molecule 2) (αIIbβ3 headpiece [1]; 1 mM ligand, Mg/Ca (1 mM MgCl2, 1 mM CaCl2), soak 2 h): State 6/state 3
Compound: N=C(N)c1ccc(C(=O)NCCC(=O)N[C@@H](CC(=O)O)C(=O)N[C@@H](Cc2ccccc2)C(=O)O)cc1 [Ro-435054]
binds the high-affinity state better than the low-affinity state (αIIbβ3): ~100 fold
Kd (αIIbβ3; read-out: KD, high-affinity state of αIIbβ3): 0.006 µM
Kd (αIIbβ3; read-out: KD, low-affinity state of αIIbβ3): 0.58 µM

Compound: AGD
IC50 [2]: ~100 µM

reduction in affinity relative to AGDV (αIIbβ3 headpiece [3]; ratio of KD values): 7.5 fold
Kd (αIIbβ3 headpiece [3]): 67.6 ± 23.3 µM
Compound: COC(=O)[C@@H](NC(=O)[C@H](CC(=O)O)NC(=O)CNC(=O)[C@H](C)N)C(C)C [AGDV-OCH3] (H-AGDV-OMe)

less effective than GRGDSP (LIBS1 EC50) ([4]; ratio of EC50 values): ~7 times
less effective when compared with dodecapeptide (LIBS1 EC50) ([4]; ratio of EC50 values): 2.5 times
Stokes radii, DLS (αIIbβ3 headpiece [5]): 5.24 ± 0.03 nm and 5.2 nm
Conformational states (molecule 1/molecule 2) (αIIbβ3 headpiece [1]; 50 mM ligand, Mn/Ca (2 mM MnCl2, 0.1 mM CaCl2), soak 1 week): State 7/state 2
Conformational states (molecule 1/molecule 2) (αIIbβ3 headpiece [1]; 50 mM ligand, Mn/Ca (2 mM MnCl2, 0.1 mM CaCl2), soak 2 h): State 6/state 3
elution volume of αIIbβ3 headpiece (αIIbβ3 headpiece [6]): 12.19 ± 0.05 mL
Stokes radii, Size-exclusion (αIIbβ3 headpiece [6]): 5.17 nm
less potent than the dodecapeptide (αIIbβ3 headpiece [3]; in Mn2+/Ca2+, ratio of KD values): ~7 times
Kd (αIIbβ3 headpiece [3]): 9.03 ± 2.75 µM
Compound: CC(C)[C@H](NC(=O)[C@H](CC(=O)O)NC(=O)CNC(=O)[C@H](C)N)C(=O)O [AGDV] (H-AGDV-OH)

Stokes radii, DLS (αIIbβ3 headpiece [5]): 5.19 ± 0.04 nm
elution volume of αIIbβ3 headpiece (αIIbβ3 headpiece [6]): 12.15 ± 0.06 mL
Stokes radii, Size-exclusion (αIIbβ3 headpiece [6]): 5.23 nm
Compound: RGDF [reference compound]

EC50 ([4]; CHO K1 αIIbβ3 transfectants, 1 mM Mg2+/1 mM Ca2+, 10 μg/ml LIBS1, 30 min, room temperature, flow cytometry, mean ± S.D., read-out: EC50, LIBS1 epitope exposure): 578 ± 222 µM
Kd (αIIbβ3 headpiece [3]): 1.27 ± 0.08 µM
Compound: HHLGGAKQAGDV [fibrinogen γC dodecapeptide, reference compound]

Kd (αIIbβ3 headpiece [3]): 50.9 ± 13 µM
Compound: CC(C)[C@H](NC(=O)[C@H](CC(=O)O)NC(=O)CNC(=O)[C@H](C)N)C(N)=O [AGDV-NH2] (H-AGDV-NH2)

reduction in affinity relative to AGDV (αIIbβ3 headpiece [3]; ratio of KD values): 24 fold
Kd (αIIbβ3 headpiece [3]): 217 ± 85.2 µM
Compound: CC(C)[C@@H](NC(=O)[C@H](CC(=O)O)NC(=O)CNC(=O)[C@H](C)N)C(=O)O [AGD(v)] (H-AGD[dV]-OH)

Kd (αIIbβ3 headpiece [3]): 1 ± 0.46 µM
Compound: CC(=O)N[C@@H](C)C(=O)NCC(=O)N[C@@H](CC(=O)O)C(=O)N[C@H](C(=O)O)C(C)C [Ac-AGDV, N-acetylated AGDV] (Ac-AGDV-OH)

Source: PMC4813479, “β-Subunit Binding Is Sufficient for Ligands to Open the Integrin αIIbβ3 Headpiece” (The Journal of Biological Chemistry, 2015)
